Where two headings read alike, the source gives them in different places.
What was measured:
ethanol elimination rate [1] = conditions: human subjects, cited from earlier work
[2] = tested on: serum acetaldehyde concentration; experiment: Blinded, intra-subject controlled single dose study: serum acetaldehyde after oral 4-MP and ethanol in ethanol-intolerant subjects genotyped for ALDH2 and ADH2; type: in vivo, human
Method: A blinded, intra-subject controlled, single dose, dose escalation study of 4-MP for mitigation of acetaldehyde related toxicity in subjects with symptoms of inborn altered ethanol metabolism with concomitant ethanol exposure was undertaken.
Twenty-four subjects (n=24) were randomly selected and orally administered 1 mg/kg, 3 mg/kg, or 5 mg/kg of 4-MP, followed 30 minutes later by an oral dose of 20% ethanol ([…]).
Using the same protocol, wherein 4-MP was replaced with placebo, each of the twenty-four randomly selected subjects served as its own control.
The twenty-four randomly selected subjects were then subjected to blood sampling, and the sampled blood analyzed for acetaldehyde levels at select time points following ethanol consumption.
For acetaldehyde analysis, blood samples were prepared by dilution with an internal standard (acetaldehyde-d4), with derivatization of acetaldehyde with dinitrophenyl hydrazine in hydrochloric acid, liquid-liquid portioning and solvent exchange. The derivatization forms an acetaldehyde-dinitrophenyl hydrazine (DNPH) derivative which dramatically increases the boiling point of the molecule and thus its relative stability compared to the acetaldehyde itself (Nagy et al., Rapid Communications in Mass Spectrometry 2004, 18, 2473-2478). The derivatized analytes were separated using a Jones Chromatography (Grace-Vydac), 50 mm×2.1 mm, 3 μm column held in an oven set at 28° C. Two mobile phases were used in a gradient consisting of 30:70 acetonitrile:water versus 90:10 acetonitrile:water with 0.1% formic acid. The derivatized analyte was detected on a High Performance Liquid Chromatograph equipped with a Mass Spectrometer (HPLC/MS/MS). Quantitation was performed using a linear regression curve fit of impurities standards with 1/x weighting, prepared from dilutions of acetaldehyde in water. Samples and standards were injected at 2 μL.
All […] subjects were then genotyped for ALDH2 and ADH2 at the Alcohol Research Center at Indiana University using (i) genomic DNA isolation and (ii) TaqMan assay for allelic discrimination. • i. Genomic DNA isolation: DNA was first isolated using the “HotSHOT” method for isolating PCR quality genomic DNA (Truett et al., Biotechniques 2000, 29(1), 52-54). Briefly, blood blotted on filter paper (3 mm circle) was placed in the well of a 96-well plate and mixed with 75 μL 25 mM NaOH/0.3 mM EDTA solution and heated to 95° C. for 40 minutes, followed by neutralization with 75 μL 40 mM Tris-HCl (pH 5) solution. 1-5 microliters were used for each PCR. • ii. TaqMan Assay for Allelic Discrimination: The allelic discrimination assay used a multiplexed (more than one primer/probe pair per reaction), end-point (data is collected at the end of the PCR process) assay. Each assay mix contained two different TaqMan probes (Applied BioSystems, Foster City, Calif.), labeled with VIC or FAM fluorescent reporter dye, which bound preferentially to one of the alleles. The genotype of each sample was determined by the fluorescence levels of the reporter dyes and was clustered on a graph with other samples of the same genotype. Each reaction contained 5 μL of 2×TaqMan Universal PCR Masternix, No AmpErase UNG, 3.75 μL of water, 0.25 μL of 40× Assay Mix, and 1 μL of DNA sample. Eight or eleven controls were included on each 96-well plate: two no template controls, two or three heterozygous samples, and two or three of each of the homozygous samples. Thermocycling was carried out in MJ Research PTC-200 thermocyclers. The PCR products were then analyzed in an ABI PRISM® 7300 Sequence Detection System (SDS) instrument. SDS Software 1.3.1 converted the raw data to pure dye components and plotted the results of the allelic discrimination on a scatter plot of Allele X versus Allele Y (e.g., ADH2*1 versus ADH2*2); each genotype appeared on the graph as a cluster of points. […]

ethanol elimination rate [3] = experiment: Percent reduction in ethanol elimination rate versus dose of 4-MP in human subjects (literature data, FIG. 2); type: in vivo; conditions: doses of 4 mg/kg 4-MP and less; from linear least squares fit of literature data (FIG. 2)
From the text: As used herein, “ethanol elimination rate” refers to the reduction in ethanol concentration in a subject's bloodstream over time after the subject has ingested ethanol. Typically, an ethanol elimination rate can be expressed in terms of millimole ethanol/kilogram subject body mass/hour. Techniques for blood sampling and analysis of ethanol levels in blood are well known to those of skill in the art. See, e.g., Inoue et al., Alcoholism: Clinical and Experimental Research 1984, 8, 319-322, incorporated herein by reference in its entirety. A “percent change in ethanol elimination rate,” can be calculated as follows:
[formula] where EtOH represents ethanol, and a number for a percent change in ethanol elimination that is less than 100 is a reduction in the percent change in EtOH elimination. Blood ethanol levels can also be calculated, for example, based on algorithms utilizing the amount of ethanol consumed by a subject, the subject's body mass, and time period since the consumption of ethanol, or, as another example, blood ethanol levels can be extrapolated from analysis of a subject's breath, and the like, as known to those of skill in the art. […]

[4] = all subjects with reduced or absent ALDH2 activity, 1, 3 or 5 mg/kg 4-MP
[5] = reduced ALDH2 activity, ADH2*1/ADH2*1 or ADH2*1/ADH2*2, 1 mg/kg 4-MP
[6] = reduced or absent ALDH2 activity, ADH2*2/ADH2*2, 1 mg/kg 4-MP

## Cc1cn[nH]c1 [4-MP, 4-methylpyrazole]
Ethanol elimination rate [1]; 6 mg 4-MP per kilogram body weight, Lindros et al. 1981
  reduction in EtOH elimination: 20%
Ethanol elimination rate [1]; 8.5 mg 4-MP per kilogram body weight, Inoue et al. 1985
  reduction in EtOH elimination: 12%
Ethanol elimination rate [1]; 10 mg 4-MP per kilogram body weight, Inoue et al. 1984
  reduction in EtOH elimination: 20%
Ethanol elimination rate [1]; 12.5 mg 4-MP per kilogram body weight, Sarkola et al. 2002
  reduction in EtOH elimination: 34%
[2]; [4]
  Cmax mean and AUC0-8H mean of acetaldehyde concentration in the blood, versus absence of 4-MP (in words): not significantly reduced
  peak mean acetaldehyde concentration in the blood due to drinking ethanol (FIG. 5), versus placebo: not reduced
[2]; [5]
  Cmax mean and AUC0-8H mean of acetaldehyde concentration in the blood, versus absence of 4-MP (in words): significantly reduced
  peak mean acetaldehyde concentration in the blood due to drinking ethanol (FIG. 3), versus placebo: can be reduced
[2]; [6]
  Cmax mean and AUC0-8H mean of acetaldehyde concentration in the blood, versus absence of 4-MP (in words): not significantly reduced
  peak mean acetaldehyde concentration in the blood due to drinking ethanol (FIG. 4), versus placebo: not reduced
Ethanol elimination rate [3]
  reduction in ethanol elimination: less than 10%

From patent publication US9326971B2, “4-methylpyrazole formulations for inhibiting ethanol intolerance” (Raptor Pharmaceuticals Inc., priority 2004, dated 2016)
